Assay [1] relates to spring wheat. As to the kind of experiment: Growth height of spring wheat, soil treatment, Example 10. In kind it is in vivo, spring wheat ("Opal" variety). On the procedure: (§1) Spring wheat ("Opal" variety) and spring barley ("Union" variety) were grown under greenhouse conditions in plastic dishes 11.5 cm in diameter, in a peat substrate provided with sufficient nutrients. For the soil (preemergence) treatment, the active ingredients were poured, at two application rates, as aqueous formulations onto the surface of the substrate after sowing.
(§2) The plant height was measured at the end of the experiment. The figures obtained show the shortening effect of the active ingredients under investigation. The prior art compound β-chloroethylphosphonic acid (Ethephon, German Printed Application DAS No. 1,667,968) was used for comparison purposes.

In assay [2] the test system is spring wheat. Put plainly: Growth height of spring wheat, leaf treatment, Example 10. The format is in vivo, spring wheat ("Opal" variety). Here is the method:
as §1
(§3) Leaf treatment was effected by spraying the plants at a growth height of 10 cm with aqueous formulations of the active ingredients at two application rates.
as §2

Assay [3] has as its system spring barley. As to the kind of experiment: Growth height of spring barley, soil treatment, Example 10. In kind it is in vivo, spring barley ("Union" variety). On the procedure: as §1, §2
For assay [4], the system named is spring barley. Put plainly: Growth height of spring barley, leaf treatment, Example 10. The format is in vivo, spring barley ("Union" variety). Here is the method:
as §1, §3, §2

The test system of assay [5] is grass. As to the kind of experiment: Growth height of, and amount of mowings in, grass, Example 12. The format is in vivo. To be noted: for First mowing, growth height, relative / First mowing, mowings, relative / Second mowing, growth height, relative / Second mowing, mowings, relative: control = 100. The source says:
In an experiment in large vessels, lawn seed of the following standard composition was sown in a loamy soil: Agrostis tenuis (10%), Cynosurus cristatus (10%), Festuca rubra (15%), Lolium perenne (35%) and Poa pratensis (30%). 1.5 g of N as ammonium nitrate and 1 g of P2 O5 as secondary potassium phosphate were applied as fertilizer. After the grass had been cut twice, the active ingredients were sprayed in conventional manner at various application rates onto the grass which was 4 cm high. The growth height and the mowings were determined 19 days after the treatment. Compared with the control, the treated plants reacted with most considerable height reductions and a proportionate decrease in mowings.

The source of these data is patent US4259235A, “Tricyclic nitrogenous compounds having string plant growth regulating properties” (BASF Aktiengesellschaft, priority 1977, dated 1981).

In the case of `Clc1ccc(C2N=NC3C4CC(C5N=NC45)C23)cc1` (stereo not shown) [drawing 392], in assay [1] (3 kg/ha), the Plant height is on record as 17.0 cm and the “Plant height, % of untreated control” value was 53.1%. Moreover, in assay [1] (12 kg/ha), the Plant height came out at 14.0 cm and the “Plant height, % of untreated control” value is on record as 43.8%.
`Brc1ccc(C2=NOC3C4CC(C5N=NC45)C23)cc1` (stereo not shown) [drawing 393]: in assay [1] (3 kg/ha), the Plant height was determined as 26.5 cm and the “Plant height, % of untreated control” value is 82.8%. In addition, in assay [1] (12 kg/ha), the Plant height stood at 25.5 cm and the “Plant height, % of untreated control” value is listed as 79.7%.
In the same order, the values of `O=[N+]([O-])c1ccc(C2=NOC3C4CC(C5N=NC45)C23)cc1` (stereo not shown) [drawing 394] are 25.5 cm, 79.7%, 22.0 cm and 68.8%.
Taken in the same sequence, the figures for `Cc1ccc(C2=NOC3C4CC(C5N=NC45)C23)cc1` (stereo not shown) [drawing 395] were 23.5 cm, 73.4%, 22.0 cm and 68.8%.
In the same order, the values of `COc1ccc(C2=NOC3C4CC(C5N=NC45)C23)cc1` (stereo not shown) [drawing 396] are 27.0 cm, 84.4%, 24.5 cm and 76.6%.
Turning to `Clc1ccc(C2=NOC3C4CC(C5N=NC45)C23)cc1` (stereo not shown) [drawing 397], the Plant height is 16.0 cm in assay [1] (3 kg/ha) and 15.0 cm in assay [1] (12 kg/ha). For the same compound, the “Plant height, % of untreated control” value in assay [1] (3 kg/ha) worked out at 50.0%; in assay [1] (12 kg/ha) it was 46.9%.
Consider `Clc1ccc(C2N=NC3C4CC(C5N=NC45)C23)cc1` (stereo not shown) [drawing 398], for which the Plant height in assay [2] (1.5 kg/ha) worked out at 23.5 cm; in assay [2] (6.0 kg/ha), 22.0 cm. In addition, the entries for the “Plant height, % of untreated control” value in assay [2] (1.5 kg/ha) and in assay [2] (6.0 kg/ha) were 71.6% and 67.1%, respectively.
In the same order, the values of `Brc1ccc(C2=NOC3C4CC(C5N=NC45)C23)cc1` (stereo not shown) [drawing 399] are 29.0 cm, 27.5 cm, 88.4% and 83.8%.
Taken in the same sequence, the figures for `O=[N+]([O-])c1ccc(C2=NOC3C4CC(C5N=NC45)C23)cc1` (stereo not shown) [drawing 400] were 29.0 cm, 27.0 cm, 88.4% and 82.3%.
For the compound `Cc1ccc(C2=NOC3C4CC(C5N=NC45)C23)cc1` (stereo not shown) [drawing 401], the Plant height in assay [2] (1.5 kg/ha) amounted to 29.5 cm; in assay [2] (6.0 kg/ha), 27.5 cm. In addition, the figures for the “Plant height, % of untreated control” value in assay [2] (1.5 kg/ha) and in assay [2] (6.0 kg/ha) were 89.9% and 83.3%, respectively.
In the same order, the values of `Clc1ccc(C2=NOC3C4CC(C5N=NC45)C23)cc1` (stereo not shown) [drawing 402] are 29.0 cm, 27.0 cm, 88.4% and 82.3%.
Taken in the same sequence, the figures for `FC(F)(F)c1cccc(NC2C(I)C3CC2C2N=NC32)c1` (stereo not shown) [drawing 403] were 27.5 cm, 25.5 cm, 83.3% and 77.7%.
As to `Clc1ccc(C2N=NC3C4CC(C5N=NC45)C23)cc1` (stereo not shown) [drawing 404], the results for the Plant height in assay [3] (3 kg/ha) and in assay [3] (12 kg/ha) were 22.0 cm and 20.0 cm, respectively. The figures for the “Plant height, % of untreated control” value in assay [3] (3 kg/ha) and in assay [3] (12 kg/ha) were 64.1% and 58.3%, respectively.
Turning to `Brc1ccc(C2=NOC3C4CC(C5N=NC45)C23)cc1` (stereo not shown) [drawing 405], in assay [3] (3 kg/ha), the Plant height came out at 28.0 cm and the “Plant height, % of untreated control” value is given as 81.6%. In addition, in assay [3] (12 kg/ha), the Plant height is listed as 26.0 cm and the “Plant height, % of untreated control” value is recorded as 75.8%.
As for `O=[N+]([O-])c1ccc(C2=NOC3C4CC(C5N=NC45)C23)cc1` (stereo not shown) [drawing 406], in assay [3] (3 kg/ha), the Plant height is reported as 27.0 cm and the “Plant height, % of untreated control” value stood at 78.8%. Moreover, in assay [3] (12 kg/ha), the Plant height was 24.0 cm and the “Plant height, % of untreated control” value was found to be 70.0%.
As for `Cc1ccc(C2=NOC3C4CC(C5N=NC45)C23)cc1` (stereo not shown) [drawing 407], in assay [3] (3 kg/ha), the Plant height is reported as 25.0 cm and the “Plant height, % of untreated control” value came out at 72.9%. In addition, in assay [3] (12 kg/ha), the Plant height came to 21.0 cm and the “Plant height, % of untreated control” value is 61.2%.
Taken in the same sequence, the figures for `COc1ccc(C2=NOC3C4CC(C5N=NC45)C23)cc1` (stereo not shown) [drawing 408] were 30.0 cm, 87.5%, 29.0 cm and 84.5%.
In the same order, the values of `Clc1ccc(C2=NOC3C4CC(C5N=NC45)C23)cc1` (stereo not shown) [drawing 409] are 26.0 cm, 75.8%, 24.0 cm and 70.0%.
As for `Clc1ccc(C2N=NC3C4CC(C5N=NC45)C23)cc1` (stereo not shown) [drawing 410], in assay [4] (1.5 kg/ha), the Plant height was 22.0 cm and the “Plant height, % of untreated control” value stood at 78.6%. In addition, in assay [4] (6.0 kg/ha), the Plant height is 19.5 cm and the “Plant height, % of untreated control” value was determined as 69.6%.
Taken in the same sequence, the figures for `Brc1ccc(C2=NOC3C4CC(C5N=NC45)C23)cc1` (stereo not shown) [drawing 411] were 25.5 cm, 91.1%, 25.0 cm and 89.3%.
In the same order, the values of `O=[N+]([O-])c1ccc(C2=NOC3C4CC(C5N=NC45)C23)cc1` (stereo not shown) [drawing 412] are 25.0 cm, 89.3%, 24.5 cm and 87.5%.
In the same order, the values of `Cc1ccc(C2=NOC3C4CC(C5N=NC45)C23)cc1` (stereo not shown) [drawing 413] are 25.5 cm, 91.1%, 25.0 cm and 89.3%.
With `c1ccc(C2=NOC3C4CC(C5N=NC45)C23)cc1` (stereo not shown) [drawing 424], in assay [5] (3.0 kg/ha), the “First mowing, growth height” value is 20.0 cm; the “First mowing, mowings” value is reported as 116.3 g; the “Second mowing, growth height” value is on record as 19.0 cm; the “Second mowing, mowings” value was 94.8 g. In assay [5] (3.0 kg/ha), the “First mowing, growth height, relative” value amounted to 91.7; the “First mowing, mowings, relative” value was determined as 86.7; the “Second mowing, growth height, relative” value was 95.0; the “Second mowing, mowings, relative” value was found to be 104.6. For the same compound, in assay [5] (6.0 kg/ha), the “First mowing, growth height” value was found to be 17.0 cm; the “First mowing, mowings” value came out at 101.1 g; the “Second mowing, growth height” value came out at 16.5 cm; the “Second mowing, mowings” value is 85.2 g. Moreover, in assay [5] (6.0 kg/ha), the “First mowing, growth height, relative” value turned out to be 78.0; the “First mowing, mowings, relative” value amounted to 75.3; the “Second mowing, growth height, relative” value is recorded as 82.5; the “Second mowing, mowings, relative” value turned out to be 94.0.
As to `Clc1ccc(C2N=NC3C4CC(C5N=NC45)C23)cc1` (stereo not shown) [drawing 425], in assay [5] (3.0 kg/ha), the “First mowing, growth height” value is reported as 20.0 cm; the “First mowing, mowings” value is recorded as 125.1 g; the “Second mowing, growth height” value is on record as 19.0 cm; the “Second mowing, mowings” value was 89.9 g. In addition, in assay [5] (3.0 kg/ha), the “First mowing, growth height, relative” value is recorded as 91.7; the “First mowing, mowings, relative” value worked out at 93.2; the “Second mowing, growth height, relative” value was determined as 95.0; the “Second mowing, mowings, relative” value came out at 99.2. Also, in assay [5] (6.0 kg/ha), the “First mowing, growth height” value is recorded as 18.0 cm; the “First mowing, mowings” value worked out at 119.0 g; the “Second mowing, growth height” value came out at 19.0 cm; the “Second mowing, mowings” value is on record as 92.2 g. Moreover, in assay [5] (6.0 kg/ha), the “First mowing, growth height, relative” value is 82.6; the “First mowing, mowings, relative” value came out at 88.7; the “Second mowing, growth height, relative” value amounted to 95.0; the “Second mowing, mowings, relative” value was determined as 101.8.
In the case of `Clc1ccc(C2=NOC3C4CC(C5N=NC45)C23)cc1` (stereo not shown) [drawing 426], in assay [5] (3.0 kg/ha), the “First mowing, growth height” value turned out to be 21.0 cm; the “First mowing, mowings” value is on record as 117.7 g; the “Second mowing, growth height” value was determined as 18.5 cm; the “Second mowing, mowings” value was found to be 75.3 g. For the same compound, in assay [5] (3.0 kg/ha), the “First mowing, growth height, relative” value came to 96.3; the “First mowing, mowings, relative” value is listed as 87.7; the “Second mowing, growth height, relative” value is 92.5; the “Second mowing, mowings, relative” value was 83.1. For the same compound, in assay [5] (6.0 kg/ha), the “First mowing, growth height” value stood at 18.5 cm; the “First mowing, mowings” value is reported as 114.0 g; the “Second mowing, growth height” value came to 17.0 cm; the “Second mowing, mowings” value amounted to 72.1 g. Also, in assay [5] (6.0 kg/ha), the “First mowing, growth height, relative” value was 84.9; the “First mowing, mowings, relative” value stood at 84.9; the “Second mowing, growth height, relative” value is listed as 85.0; the “Second mowing, mowings, relative” value was 79.6.
